Where two headings read alike, the source gives them in different places.
How the values were obtained:
[1] = test system: RAW264.7 cells; assay: Peroxynitrite removal in macrophages under SIN-1 (DAX-J2 PON Green); format: cell-based; settings: RAW264.7 macrophages, 10 μM and 30 μM, 200 μM SIN-1
Description: (§1) To confirm the effect of removing peroxynitrite produced from macrophages, RAW264.7 cells were seeded in a 96 well plate at 1×10^5 cells/well and cultured for 24 hours. Peroxynitrite was measured by fluorescence measurement using DAX-J2™ PON Green dye. […] Thereafter, SIN-1 was treated to a final concentration of 200 μM, and the amount of peroxynitrite generated in the cell every 2 minutes in real time was measured through fluorescence intensity. To confirm the effect of removing peroxynitrite from astrocytes, C8-D1A cells were seeded in a 96 well plate at 6×10^4 cells/well and cultured for 24 hours, and the experiment was performed under the same conditions. […] The horizontal axis represents the concentrations of the compound of Formula 1 and ascorbic acid, and V.C is the control treated with only the vehicle, and the concentration of intracellular peroxynitrite increases the most during SIN-1 treatment. The vertical axis represents the total amount of peroxynitrite generated 1 hour after SIN-1 treatment.

[2] = test system: C8-D1A cells; assay: Peroxynitrite removal in astrocytes under SIN-1 (DAX-J2 PON Green); format: cell-based; settings: 10 μM and 30 μM, 200 μM SIN-1
Description: as §1

[3] = test system: MPTP-induced Parkinson's disease mouse model; assay: TH (Tyrosine hydroxylase) staining of brain tissue in MPTP-induced Parkinson's disease mouse model; format: in vivo, C57BL/6 mice; settings: medium and high doses
Description: Behavioral disorders were induced by administering 20 mg/kg MPTP to C57BL/6 mice a total of 4 times at 2 hour intervals. […] On the 6th day after administration of the compound of Formula 1, mice were sacrificed, frozen sections of brain tissue were prepared, and TH (Tyrosine hydroxylase) staining was performed.

[4] = test system: MPTP-induced Parkinson's disease mouse model; assay: Grip strength test in MPTP-induced Parkinson's disease mouse model; format: in vivo, C57BL/6 mice; settings: intraperitoneally once a day, low, medium and high doses, 6 days from 2 days after MPTP
[5] = test system: MPTP-induced Parkinson's disease mouse model; assay: Pole test in MPTP-induced Parkinson's disease mouse model; format: in vivo, C57BL/6 mice; settings: intraperitoneally once a day, low, medium and high doses, 6 days from 2 days after MPTP
[6] = test system: H9C2 cells; assay: Intra-mitochondrial reactive oxygen species, DHR-123 fluorometry under tBHP; format: cell-based; settings: 0.0001 to 30 μM compound, 400 μM tBHP
Description: To examine the intra-mitochondrial reactive oxygen species removal effect in cardiomyocytes, H9C2 cells were placed in a 96 well plate at 1.5×10^4 cells/well and cultured for 24 hours. To measure mitochondria-specific reactive oxygen species, fluorometry using dihydrorhodamine-123 (DHR-123) was used.

[7] = Solubility screening of the compound of Chemical Formula 1 in various solvents (supernatant, HPLC); format: physicochemical
[8] = test system: H9C2 cells; assay: Cytoplasmic calcium concentration under tBHP treatment (FLIPR Calcium 6 assay kit); format: cell-based; settings: 150 μM tBHP
Description: To examine the calcium concentration maintenance effect in cardiomyocytes, H9C2 cells were placed in a 96 well plate at 1.5×10^4 cells/well and cultured for 24 hours. To measure cytoplasmic calcium concentration, a FLIPR Calcium 6 assay kit (Molecular devices; #R8190) was used. Following the manufacturer's experimental method, the cells were treated with probenecid and calcium-specific dye. […] For stimulation of cells, the cells were treated with tBHP to a final concentration of 150 μM, then cytoplasmic calcium concentration was measured every 30 seconds in real time. […] The ΔF/F (Max-Min) value of the vertical axis is the difference between the maximum and minimum values for the fluorescence value of calcium-specific dye after tBHP treatment. The ΔF/F value increases with cytoplasmic calcium concentration. The horizontal axis indicates the concentration of Chemical Formula 1, and V.C. is a control only treated with the vehicle, where cytoplasmic calcium concentration increases most when treated with tBHP.

[9] = test system: H9C2 cells; assay: Intra-mitochondrial superoxide imaging with MitoSOX under tBHP; format: cell-based; settings: 1 μM compound, 50 μM tBHP 1 hour
Description: To measure the superoxides among the reactive oxygen species occurring in mitochondria, intracellular fluorescent imaging was used by using MitoSOX™ (Red Mitochondrial Superoxide Indicator). […] The cell culture medium was replaced with a medium without phenol red, then the cells were treated for 30 minutes with HOECHST (0.5 drop/ml), MitoTracker Green (150 nM) and MitoSOX (2 μM) before observing intracellular fluorescence through imaging.

[10] = Solubility equilibrium in DMSO/EtOH mixed solvent by temperature; format: physicochemical; settings: organic solvent or mixture, thermodynamic from solid
Description: These were respectively heated and held at 50° C., 60° C., and 75° C. while being agitated for 6 hours. […] Accordingly, it was decided that a super-saturation method would be considered.

[11] = test system: H9C2 cells; assay: Mitochondrial calcium imaging with Rhod-2 under tBHP, thapsigargin and CaCl2; format: cell-based; settings: 10 μM compound, 150 μM tBHP, 1.2 μM thapsigargin, 2 mM CaCl2
Description: In addition, in order to confirm the effect of inhibiting the increase in mitochondrial calcium concentration in cardiomyocytes by cell imaging, H9C2 cells were seeded in a 35 mm culture dish at 1.5×10^4 cells and cultured for 24 hours. Imaging of calcium concentration in mitochondria was performed using Rhod-2. The cells were treated with Rhod-2, MitoTracker Green (200 nM), and Hoechst33342 (2 drops/ml) for 50 minutes, washed twice with KRB buffer, and incubated for another 30 minutes with buffer solution. The cells were treated with the compound of Formula 1 for 0.25 hours to final concentration of 10 μM, and treated with tBHP for 30 minutes to final concentration of 150 μM. Then, the cells were treated with 1.2 μM thapsigargin for 10 minutes and 2 mM of CaCl2, and the fluorescence developed in mitochondrial calcium of the living cells was observed through imaging.

[12] = intraperitoneally once a day, low, 6 days

SMILES: O=S1(=O)CCN(Cc2cc(NC3CCOCC3)c3[nH]c(-c4ccccc4)cc3c2)CC1 [compound of Chemical Formula 1, 5-[(1,1-dioxido-4-thiomorpholinyl)methyl]-2-phenyl-N-(tetrahydro-2H-pyran-4-yl)-1H-indol-7-amine]
- Peroxynitrite inhibition compared with positive control ascorbic acid [1]: superior inhibitory effect than ascorbic acid
- Total peroxynitrite generated 1 hour after SIN-1 treatment [1]: peroxynitrite generation was inhibited by treatment with the compound of Formula 1 in a concentration-dependent manner
- Peroxynitrite inhibition compared with positive control ascorbic acid [2]: superior inhibitory effect than ascorbic acid
- Total peroxynitrite generated 1 hour after SIN-1 treatment [2]: peroxynitrite generation was inhibited by treatment with the compound of Formula 1 in a concentration-dependent manner
- TH level in the striatum [3, 12]: recovered in a concentration-dependent manner
- TH level in the substantia nigra [3, 12]: recovered in a concentration-dependent manner
- TH level in the striatum [3]: significantly increased
- Grip force value [4]: restored in a concentration-dependent manner
- Pole test T-turn time [5]: recovered in a concentration-dependent manner
- Pole test total time [5]: recovered in a concentration-dependent manner
- Total intra-mitochondrial reactive oxygen species over 2 hours after tBHP (DHR-123) [6]: inhibit occurrence of reactive oxygen species in a concentration-dependent manner
- Solubility ([7]; Heptane, 25° C.): <LOQ
- Solubility ([7]; Heptane, 50° C.): <LOQ
- Solubility ([7]; MTBE, 25° C.): 0.06 mg/mL
- Solubility ([7]; MTBE, 50° C.): 0.07 mg/mL
- Solubility ([7]; THF, 25° C.): 17.40 mg/mL
- Solubility ([7]; in most solvents (Table 3)): very low
- Solubility ([7]; organic solvent or mixture, thermodynamic from solid, in DMF, NMP and DMSO (Table 3), read-out: Solubility): ≥ 40 mg/mL
- Cytoplasmic calcium concentration (ΔF/F Max-Min) after tBHP ([8]; 0.01 μM compound): reduced
- Cytoplasmic calcium concentration (ΔF/F Max-Min) after tBHP ([8]; 0.1 μM compound): normal level of cytoplasmic calcium concentration
- Intra-mitochondrial superoxide (MitoSOX fluorescence) [9]: effectively removes intra-mitochondrial reactive oxygen species including superoxides
- solubility at 6 h ([10]; DMSO/EtOH 1:4 mixed solvent, DMSO/EtOH 1:4, 50° C.): 15 mg/mL
- solubility at 6 h ([10]; DMSO/EtOH 1:4 mixed solvent, DMSO/EtOH 1:4, 60° C.): 19 mg/mL
- solubility at 6 h ([10]; DMSO/EtOH 1:4 mixed solvent, DMSO/EtOH 1:4, 75° C.): 31 mg/mL
- solubility at 6 h ([10]; DMSO/EtOH 1:5 mixed solvent, DMSO/EtOH 1:5, 50° C.): 12 mg/mL
- solubility at 6 h ([10]; DMSO/EtOH 1:5 mixed solvent, DMSO/EtOH 1:5, 60° C.): 14 mg/mL
- solubility at 6 h ([10]; DMSO/EtOH 1:5 mixed solvent, DMSO/EtOH 1:5, 75° C.): 19 mg/mL
- Mitochondrial calcium concentration (Rhod-2 fluorescence) [11]: effectively inhibited the increase in the calcium concentration in mitochondria

Source: patent US12649730B2 (MITOIMMUNE THERAPEUTICS INC., priority 2021, dated 2026)
